We go through 22 molecules from ChEMBL document CHEMBL1137828, “Spiroquinazolinones as novel, potent, and selective PDE7 inhibitors. Part 2: Optimization of 5,8-disubstituted derivatives” (Bioorg Med Chem Lett, 2004).

pIC50: −log10 of the molar value. ≈ marks a conversion by molar mass, not a printed value.

The target of data set [1] is T1, Phosphodiesterase 1 (Homo sapiens, UniProt P54750+Q01064+Q14123). Put plainly: Inhibition of human PDE1 partially purified from THP-1 cells. In kind it is cell-free.
In data set [2] the target is cGMP-specific 3',5'-cyclic phosphodiesterase (Homo sapiens, UniProt O76074). As to the kind of experiment: Inhibition of human PDE5 partially purified from MCF-7 cells. In kind it is cell-free, MCF7.
Data set [3] deals with cGMP-inhibited 3',5'-cyclic phosphodiesterase 3A (Homo sapiens, UniProt Q14432). As to the kind of experiment: Inhibition of human PDE3A3 expressed in baculovirus infected Sf9 cells.
Chain of cGMP-inhibited 3',5'-cyclic phosphodiesterase 3A (Q14432 whole entry): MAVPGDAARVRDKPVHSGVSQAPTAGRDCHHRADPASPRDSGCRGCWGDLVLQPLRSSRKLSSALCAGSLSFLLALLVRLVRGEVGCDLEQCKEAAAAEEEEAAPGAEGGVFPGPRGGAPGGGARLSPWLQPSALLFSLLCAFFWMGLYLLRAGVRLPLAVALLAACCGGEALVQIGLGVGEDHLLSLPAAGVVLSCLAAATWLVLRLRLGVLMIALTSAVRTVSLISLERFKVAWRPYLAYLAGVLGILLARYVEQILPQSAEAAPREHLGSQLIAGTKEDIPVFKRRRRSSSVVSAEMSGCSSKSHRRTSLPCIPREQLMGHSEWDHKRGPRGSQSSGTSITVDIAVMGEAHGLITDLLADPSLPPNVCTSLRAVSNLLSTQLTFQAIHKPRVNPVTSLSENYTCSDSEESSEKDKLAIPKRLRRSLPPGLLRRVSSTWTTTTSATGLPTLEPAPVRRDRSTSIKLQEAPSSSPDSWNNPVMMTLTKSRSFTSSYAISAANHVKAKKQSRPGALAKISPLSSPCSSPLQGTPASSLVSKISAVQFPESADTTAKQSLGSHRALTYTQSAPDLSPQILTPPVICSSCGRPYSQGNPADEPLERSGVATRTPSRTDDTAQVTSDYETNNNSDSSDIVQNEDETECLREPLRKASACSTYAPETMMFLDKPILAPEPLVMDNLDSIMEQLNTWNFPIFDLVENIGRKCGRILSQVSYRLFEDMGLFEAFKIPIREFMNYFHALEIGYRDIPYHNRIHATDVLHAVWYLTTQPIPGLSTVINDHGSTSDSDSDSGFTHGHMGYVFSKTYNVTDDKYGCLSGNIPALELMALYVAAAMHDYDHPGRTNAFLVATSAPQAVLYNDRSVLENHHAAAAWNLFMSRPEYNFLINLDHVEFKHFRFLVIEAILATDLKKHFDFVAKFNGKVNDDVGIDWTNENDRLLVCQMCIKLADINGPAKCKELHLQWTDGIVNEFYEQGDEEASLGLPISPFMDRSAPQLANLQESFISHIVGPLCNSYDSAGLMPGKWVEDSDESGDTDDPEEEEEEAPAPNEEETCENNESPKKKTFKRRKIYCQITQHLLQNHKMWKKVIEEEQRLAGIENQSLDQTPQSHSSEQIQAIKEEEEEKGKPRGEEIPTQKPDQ
Data set [4] deals with 3',5'-cyclic-AMP phosphodiesterase 4D (Homo sapiens, UniProt Q08499). As to the kind of experiment: Inhibition of human PDE4D3 expressed in baculovirus infected Sf9 cells.
Chain of 3',5'-cyclic-AMP phosphodiesterase 4D (Q08499 whole entry): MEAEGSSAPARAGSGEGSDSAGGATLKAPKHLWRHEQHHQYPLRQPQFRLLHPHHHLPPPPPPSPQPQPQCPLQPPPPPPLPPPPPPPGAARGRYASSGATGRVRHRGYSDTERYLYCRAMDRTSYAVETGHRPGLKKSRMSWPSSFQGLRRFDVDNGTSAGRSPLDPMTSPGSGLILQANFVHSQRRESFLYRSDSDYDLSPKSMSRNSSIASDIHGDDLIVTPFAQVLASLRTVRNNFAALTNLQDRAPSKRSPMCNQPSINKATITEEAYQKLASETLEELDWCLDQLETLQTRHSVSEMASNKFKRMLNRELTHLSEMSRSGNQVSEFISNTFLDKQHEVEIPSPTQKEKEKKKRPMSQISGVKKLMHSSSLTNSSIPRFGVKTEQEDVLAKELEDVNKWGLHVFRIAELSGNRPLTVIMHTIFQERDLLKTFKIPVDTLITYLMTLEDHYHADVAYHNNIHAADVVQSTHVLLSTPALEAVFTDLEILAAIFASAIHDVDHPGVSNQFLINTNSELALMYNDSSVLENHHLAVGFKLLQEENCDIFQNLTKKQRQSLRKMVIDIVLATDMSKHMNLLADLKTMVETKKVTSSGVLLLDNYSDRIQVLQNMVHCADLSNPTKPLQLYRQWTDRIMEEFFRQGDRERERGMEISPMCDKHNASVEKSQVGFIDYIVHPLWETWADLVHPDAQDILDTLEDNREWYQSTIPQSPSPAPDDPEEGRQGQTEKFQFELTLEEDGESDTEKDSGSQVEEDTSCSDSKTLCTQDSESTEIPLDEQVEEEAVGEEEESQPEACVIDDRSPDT
Data set [5] addresses High affinity 3',5'-cyclic-AMP phosphodiesterase 7A (Homo sapiens, UniProt Q13946). As to the kind of experiment: Inhibition of human PDE7A1 expressed in baculovirus infected Sf9 cells.
Data set [6] can be described thus: Solubility in HCl/KCl buffer at pH 1. The data set is classed as physicochemical.
A short description of data set [7]: Solubility in Na2HPO4/NaH2PO4 buffer at pH 7.4. In kind it is physicochemical.
A short description of data set [8]: Clearance in rats when administered at a dose of 0.5 mg/kg i.v. The data set is classed as ADME, organism-based. Set-up: dose 0.5 mg/kg, route intravenous. The conditions noted are these: rat, in vivo, iv.
Data set [9] can be described thus: Half-life in rats after peroral administration of 2.5 mg/kg. In kind it is ADME, organism-based. The note with it: rat, in vivo, po. Set-up: dose 2.5 mg/kg, route oral.
The nature of data set [10]: Oral bioavailability in rat (dose 2.5 mg/kg). In kind it is ADME, organism-based. The note with it: in vivo.
The nature of data set [11]: Volume of distribution in rats when administered at a dose of 0.5 mg/kg i.v. In kind it is ADME, organism-based. Set-up: dose 0.5 mg/kg, route intravenous. The note with it: rat, in vivo, iv.
In data set [12] the target is T1, Phosphodiesterase 1. As to the kind of experiment: Inhibition of human PDE1 expressed in baculovirus infected Sf9 cells.

Chain of High affinity 3',5'-cyclic-AMP phosphodiesterase 7A (Q13946 whole entry): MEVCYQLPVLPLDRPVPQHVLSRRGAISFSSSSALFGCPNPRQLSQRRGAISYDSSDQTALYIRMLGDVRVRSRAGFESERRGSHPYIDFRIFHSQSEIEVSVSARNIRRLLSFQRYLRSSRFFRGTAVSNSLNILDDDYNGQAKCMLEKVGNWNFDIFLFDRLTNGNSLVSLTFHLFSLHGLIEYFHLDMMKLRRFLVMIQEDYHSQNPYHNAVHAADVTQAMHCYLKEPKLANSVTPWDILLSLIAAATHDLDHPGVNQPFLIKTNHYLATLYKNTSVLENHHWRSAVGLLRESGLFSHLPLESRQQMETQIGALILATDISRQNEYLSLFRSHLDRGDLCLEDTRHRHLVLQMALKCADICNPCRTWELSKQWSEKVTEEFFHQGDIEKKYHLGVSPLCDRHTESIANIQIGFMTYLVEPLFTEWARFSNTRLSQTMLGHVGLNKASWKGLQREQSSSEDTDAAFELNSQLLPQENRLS

On to `N#CCOc1ccc(Cl)c2c1C1(CCCCC1)NC(=O)N2`, for which, at Phosphodiesterase 1 [1], the IC50 was 5.86 µM. The pIC50 was < 4.00 in [2], 4.03 in [3], 5.77 in [4] and 7.70 in data set [5]. For the same molecule, the solubility in data set [6] and in data set [7] was 4 µg/mL (≈ 13.1 µM) each time.

Turning to `O=C1Nc2c(Cl)ccc(OCCO)c2C2(CCCCC2)N1`, the half-maximal inhibitory concentration (IC50) against Phosphodiesterase 1 [1] is 10.5 µM. Further, the negative logarithm of the IC50 (pIC50) in data set [2] is < 4.04; in [3], < 4.14; in data set [4], 4.91; in [5] it was 7.30. In [8], this molecule displayed a clearance of 33.6 mL/min/kg. Moreover, the values for the solubility in data set [6] and in [7] were 11 µg/mL (≈ 35.4 µM) and 18 µg/mL (≈ 57.9 µM), respectively. The half-life in [9] was 1.5 h. In addition, in data set [10], the bioavailability was determined as 27%. The molecule further yielded a volume of distribution (Vd) in [11] of 1.41 L/kg.

On to `CN(C)CCCOc1ccc(Cl)c2c1C1(CCCCC1)NC(=O)N2`, for which, on Phosphodiesterase 1 [1], the IC50 was > 101 µM. The pIC50 is 4.01 in data set [2], < 4.00 in data set [3], 4.63 in [4] and 5.91 in data set [5].

Consider `CNCCOc1ccc(Cl)c2c1C1(CCCCC1)NC(=O)N2`, for which, on Phosphodiesterase 1 [1], the IC50 stood at 72.4 µM. Further, the negative logarithm of the IC50 (pIC50) is < 4.00 in data set [2], < 4.00 in data set [3], 4.27 in data set [4] and 6.02 in [5]. The solubility in data set [6] and in data set [7] was > 500 µg/mL throughout.

With `CN(C)CCOc1ccc(Cl)c2c1C1(CCCCC1)NC(=O)N2`, the IC50 against Phosphodiesterase 1 [1] came to 19 µM. Also, the pIC50 was 4.13 in data set [2], < 4.00 in data set [3], 5.48 in data set [4] and 6.82 in [5]. The solubility in [6] was > 500 µg/mL; in [7] it was 195 µg/mL (≈ 577 µM).

`NCCOc1ccc(Cl)c2c1C1(CCCCC1)NC(=O)N2` had an IC50 against Phosphodiesterase 1 [1] of 33 µM. The pIC50 is 4.14 in data set [2], < 4.00 in data set [3], 4.98 in data set [4] and 5.98 in data set [5]. Also, the solubility in [6] was > 500 µg/mL; in data set [7], 190 µg/mL (≈ 613 µM).

Consider `O=C1Nc2c(Cl)ccc(OCCCS(=O)(=O)O)c2C2(CCCCC2)N1`, for which, at Phosphodiesterase 1 [1], the IC50 was 0.65 µM. Besides, the pIC50 in data set [2] was 4.22; in [3] it was 4.90; in [4], 5.62; in data set [5], 8.00. Besides, the solubility in data set [6] and in data set [7] was > 500 µg/mL each time.

With `O=C(O)CNCCOc1ccc(Cl)c2c1C1(CCCCC1)NC(=O)N2`, the IC50 against Phosphodiesterase 1 [1] is 29.7 µM. Besides, the pIC50 was < 4.00 in data set [2], < 4.00 in [3], 4.83 in data set [4] and 7.40 in data set [5]. In data set [8], this molecule came in with a clearance of 39.9 mL/min/kg. Besides, the figures for the solubility in data set [6] and in data set [7] were > 500 µg/mL and 230 µg/mL (≈ 625 µM), respectively. In addition, in [9], the half-life is 2.7 h. The bioavailability in [10] turned out to be 6.5%. In data set [11], this molecule yielded a Vd of 0.47 L/kg.

Turning to `CNCC(O)COc1ccc(Cl)c2c1C1(CCCCC1)NC(=O)N2` (stereo unspecified), the IC50 against Phosphodiesterase 1 [1] is > 101 µM. In addition, the negative logarithm of the IC50 (pIC50) in data set [2] was < 4.00; in [3], < 4.00; in data set [4], 4.92; in data set [5] it was 6.68. Besides, the solubility in data set [6] and in data set [7] was > 500 µg/mL throughout.

As to `CN(C)CC(O)COc1ccc(Cl)c2c1C1(CCCCC1)NC(=O)N2` (stereo unspecified), the IC50 at Phosphodiesterase 1 [1] was > 101 µM. The pIC50 in [2] is < 4.00; in data set [3], < 4.00; in [4], 4.26; in [5], 6.40. In addition, the solubility is > 500 µg/mL in data set [6] and 137 µg/mL (≈ 372 µM) in [7].

With `O=C1Nc2c(Cl)ccc(OCCN3CCOCC3)c2C2(CCCCC2)N1`, the IC50 against Phosphodiesterase 1 [1] was found to be 29 µM. Also, the pIC50 in [2] was < 4.00; in [3], < 4.00; in data set [4] it was 5.13; in data set [5], 7.52. In addition, the clearance in [8] was 62.8 mL/min/kg. The solubility in [6] is > 500 µg/mL; in [7] it was 4 µg/mL (≈ 10.5 µM). In [9], this molecule gave a half-life of 0.32 h. Also, in [10], the bioavailability turned out to be 3.7%. The molecule also yielded a Vd in [11] of 1.02 L/kg.

In turn, `O=C1Nc2c(Cl)ccc(O)c2C2(CCCCC2)N1` gave a pIC50 in data set [5] of 8.00.

`O=C1Nc2c(Cl)ccc(OCc3nn[nH]n3)c2C2(CCCCC2)N1` displayed an IC50 against Phosphodiesterase 1 [12] of 0.32 µM. For the same molecule, the pIC50 is < 4.06 in data set [2], 4.93 in [3], 6.49 in data set [4] and 8.40 in [5]. In addition, the results for the solubility in data set [6] and in data set [7] were < 1 µg/mL and 345 µg/mL (≈ 989 µM), respectively.

`O=C(O)COc1ccc(Cl)c2c1C1(CCCCC1)NC(=O)N2` gave an IC50 against Phosphodiesterase 1 [1] of 4.76 µM. Also, the pIC50 in data set [2] was < 4.00; in data set [3], < 4.17; in [4] it was 4.82; in data set [5] it was 7.40. In data set [8], the clearance worked out at 39.4 mL/min/kg. The solubility in data set [6] is 1 µg/mL (≈ 3.08 µM); in data set [7], > 500 µg/mL. In data set [9], this molecule gave a half-life of 1.4 h. In data set [10], this molecule came in with a bioavailability of 21%. In addition, in data set [11], the Vd was determined as 1.04 L/kg.

`O=C1Nc2c(Cl)cccc2C2(CCCCC2)N1` had a pIC50 in data set [5] of 6.77.

At Phosphodiesterase 1 [1], `O=C1Nc2c(Cl)ccc(OCc3noc(O)n3)c2C2(CCCCC2)N1` returned an IC50 of 0.61 µM. Moreover, the pIC50 in [2] is < 4.00; in data set [3], 4.66; in data set [4] it was 6.09; in data set [5], 8.46. Further, the solubility is < 1 µg/mL in [6] and 113 µg/mL (≈ 310 µM) in data set [7].

`COc1ccc(Cl)c2c1C1(CCCCC1)NC(=O)N2` showed a pIC50 in data set [5] of 8.00.

Take `O=C1Nc2c(Cl)ccc(OCc3ccc(C(=O)O)o3)c2C2(CCCCC2)N1`: at Phosphodiesterase 1 [1], the IC50 amounted to 1.6 µM. Besides, the negative logarithm of the IC50 (pIC50) in data set [2] is < 4.00; in [3], 4.97; in data set [4], 5.95; in data set [5], 7.80. Moreover, the solubility in [6] is < 1 µg/mL; in data set [7] it was 100 µg/mL (≈ 256 µM).

Take `CCOC(=O)c1ccc(COc2ccc(Cl)c3c2C2(CCCCC2)NC(=O)N3)o1`: the IC50 against Phosphodiesterase 1 [1] was 2.98 µM. For the same molecule, the pIC50 in [2] is 4.10; in [3] it was 4.11; in [4], 5.99; in [5] it was 8.00.

For `O=C1Nc2c(Cl)ccc(Cl)c2C2(CCCCC2)N1`, the pIC50 in data set [5] was 8.00.

In data set [5], `Cc1ccc(Cl)c2c1C1(CCCCC1)NC(=O)N2` showed a pIC50 of 7.00.

Take `NCCOCCOc1ccc(Cl)c2c1C1(CCCCC1)NC(=O)N2`: on Phosphodiesterase 1 [1], the 50% inhibitory concentration (IC50) is > 101 µM. Further, the pIC50 in [2] was < 4.00; in [3], < 4.00; in data set [4] it was 4.00; in [5] it was 5.79. Also, the solubility in [6] and in data set [7] was > 500 µg/mL each time.

As usually defined, the IC50 is the concentration at which inhibition is half-maximal. The pIC50 is the IC50 on a negative log10 scale, so that one unit is a factor of ten. Low values mean a high IC50, high ones a low IC50. By solubility is commonly meant the dissolved amount per volume that the medium holds. The clearance is the volume of plasma or blood freed of the substance per unit of time. Low values mean inefficient removal, high ones efficient removal. Usually half-life stands for the time needed for the level to fall by half in the phase considered. Low values mean rapid decline, high ones slow decline. One may read the bioavailability as the share of a dose that reaches the circulation, judged against a reference dose that is usually intravenous. What is called Vd is a proportionality between amount in the body and measured concentration, not a real space. Read a low Vd as confinement near the circulation.
